Laboratory results from patent US6387921B1 (dated 2002).

- melting point: 270 °C
SMILES: CC1(C)[C@H]2Cc3c(N)cccc3[C@]1(C)CCN2CCOCc1c(F)cccc1F.Cl.Cl
